The source of these data is patent US8969325B2, “TRPV1 antagonists” (AbbVie Inc., priority 2011, dated 2015).

The target in experiment [1] is T1, human TRPV1 (Homo sapiens (Human), UniProt Q8NER1). The experiment can be described thus: Acid Activation Assay (pH 5.0, intracellular Ca2+, FLIPR). To be noted: percentage of the maximal pH 5.0-induced response remaining; recombinant HEK293 hTRPV1 cells; maximum concentration tested 37.5 μM. It counts as cell-based. The essentials: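 Readout: peak [Ca2+]i fluorescence over baseline on FLIPR, expressed as percentage remaining of the maximal pH 5.0-evoked signal. Stable hTRPV1-HEK293 cells with Calcium-4 dye received compound (12 half-log concentrations, maximum 37.5 μM) 3 min before acidic pH 5.0 buffer.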
T1 sequence (Q8NER1 whole entry): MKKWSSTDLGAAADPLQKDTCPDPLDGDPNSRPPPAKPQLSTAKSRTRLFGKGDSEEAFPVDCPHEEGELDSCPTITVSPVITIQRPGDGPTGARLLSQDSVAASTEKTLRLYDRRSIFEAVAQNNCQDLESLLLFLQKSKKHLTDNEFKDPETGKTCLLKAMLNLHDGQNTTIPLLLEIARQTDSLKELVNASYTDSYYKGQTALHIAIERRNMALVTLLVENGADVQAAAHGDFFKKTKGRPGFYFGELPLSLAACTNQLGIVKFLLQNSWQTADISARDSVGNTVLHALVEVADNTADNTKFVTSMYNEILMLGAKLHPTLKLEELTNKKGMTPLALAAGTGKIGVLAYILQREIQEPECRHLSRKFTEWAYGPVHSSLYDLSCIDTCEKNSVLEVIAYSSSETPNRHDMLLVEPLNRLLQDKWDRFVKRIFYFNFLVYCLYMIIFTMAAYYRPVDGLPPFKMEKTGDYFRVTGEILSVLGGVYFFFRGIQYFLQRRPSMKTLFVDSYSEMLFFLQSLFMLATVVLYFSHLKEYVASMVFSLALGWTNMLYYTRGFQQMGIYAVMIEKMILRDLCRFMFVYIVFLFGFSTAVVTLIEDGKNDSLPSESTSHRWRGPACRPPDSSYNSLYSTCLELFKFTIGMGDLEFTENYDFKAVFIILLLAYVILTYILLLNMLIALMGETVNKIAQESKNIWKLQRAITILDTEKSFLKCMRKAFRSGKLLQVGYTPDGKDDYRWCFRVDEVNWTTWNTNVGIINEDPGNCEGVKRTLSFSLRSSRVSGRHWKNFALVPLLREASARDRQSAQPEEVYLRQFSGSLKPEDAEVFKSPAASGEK

For experiment [2], the target named is T1, human TRPV1. The experiment can be described thus: Capsaicin Activation Assay (intracellular Ca2+, FLIPR). As to conditions: recombinant HEK293 cells expressing hTRPV1, 50 nM capsaicin. It counts as cell-based. Summed up: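 Ca2+ fluorescence was recorded by FLIPR every 1 to 5 seconds in HEK293 cells, clonally selected for stable human TRPV1 expression and plated one day ahead. Test compounds came as serial dilutions of 10 mM DMSO stocks.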

Consider `O=C(Nc1ccc2c(c1)NC(=O)N(CCO)C2)N[C@@H]1CCc2cc(F)ccc21` [Example 55, 1-[(1R)-5-fluoro-2,3-dihydro-1H-inden-1-yl]-3-[3-(2-hydroxyethyl)-2-oxo-1,2,3,4-tetrahydroquinazolin-7-yl]urea], for which the “human TRPV1 H^+ (max % remain)” value on human TRPV1 [1] is recorded as 36%. The IC50 on human TRPV1 [2] stood at 7300 nM.

Regarding `O=C(Nc1ccc2c(c1)NC(=O)N(CCO)C2)N[C@H]1CC2(CCC2)Oc2ccc(F)cc21` [Example 56, 1-[(4S)-6-fluoro-3,4-dihydrospiro[chromene-2,1′-cyclobutan]-4-yl]-3-[3-(2-hydroxyethyl)-2-oxo-1,2,3,4-tetrahydroquinazolin-7-yl]urea], the “human TRPV1 H^+ (max % remain)” value on human TRPV1 [1] was 67%. Besides, the IC50 at human TRPV1 [2] turned out to be 700 nM.

Take `CC1(C)C[C@H](NC(=O)Nc2ccc3c(c2)NC(=O)N(CCO)C3)c2cc(F)ccc2O1` [Example 57, 1-[(4S)-6-fluoro-2,2-dimethyl-3,4-dihydro-2H-chromen-4-yl]-3-[3-(2-hydroxyethyl)-2-oxo-1,2,3,4-tetrahydroquinazolin-7-yl]urea]: the “human TRPV1 H^+ (max % remain)” value on human TRPV1 [1] is 43%. Also, the IC50 on human TRPV1 [2] was found to be 380 nM.

As for `C[C@@]1(CF)C[C@@H](NC(=O)Nc2ccc3c(c2)NC(=O)N(CCO)C3)c2ccc(C(F)(F)F)cc2O1` [Example 58, 1-[(2S,4R)-2-(fluoromethyl)-2-methyl-7-(trifluoromethyl)-3,4-dihydro-2H-chromen-4-yl]-3-[3-(2-hydroxyethyl)-2-oxo-1,2,3,4-tetrahydroquinazolin-7-yl]urea], the “human TRPV1 H^+ (max % remain)” value on human TRPV1 [1] came to 2%. On human TRPV1 [2], the IC50 worked out at 63 nM.

Regarding `C[C@@]1(CF)C[C@@H](NC(=O)Nc2ccc3c(c2)NC(=O)N(CCO)C3)c2ccc(Cl)cc2O1` [Example 59, 1-[(2S,4R)-7-chloro-2-(fluoromethyl)-2-methyl-3,4-dihydro-2H-chromen-4-yl]-3-[3-(2-hydroxyethyl)-2-oxo-1,2,3,4-tetrahydroquinazolin-7-yl]urea], the “human TRPV1 H^+ (max % remain)” value on human TRPV1 [1] worked out at 2%. For the same compound, the IC50 at human TRPV1 [2] was determined as 1500 nM.

Consider `C[C@]1(C(F)F)C[C@@H](NC(=O)Nc2ccc3c(c2)NC(=O)N(CCO)C3)c2ccccc2O1` [Example 60, 1-[(2R,4R)-2-(difluoromethyl)-2-methyl-3,4-dihydro-2H-chromen-4-yl]-3-[3-(2-hydroxyethyl)-2-oxo-1,2,3,4-tetrahydroquinazolin-7-yl]urea], for which the “human TRPV1 H^+ (max % remain)” value at human TRPV1 [1] was found to be 9%. At human TRPV1 [2], the IC50 was determined as 1300 nM.

Consider `CC1(C)C[C@@H](NC(=O)Nc2ccc3c(c2)NC(=O)N(CCO)C3)c2ccc(Cl)c(F)c2O1` [Example 61, 1-[(4R)-7-chloro-8-fluoro-2,2-dimethyl-3,4-dihydro-2H-chromen-4-yl]-3-[3-(2-hydroxyethyl)-2-oxo-1,2,3,4-tetrahydroquinazolin-7-yl]urea], for which the “human TRPV1 H^+ (max % remain)” value on human TRPV1 [1] came to 2%. Also, at human TRPV1 [2], the IC50 came to 1200 nM.

In the case of `CC1(C)C[C@@H](NC(=O)Nc2ccc3c(c2)NC(=O)N(CCO)C3)c2ccc(C(F)(F)F)nc2O1` [Example 62, 1-[(4R)-2,2-dimethyl-7-(trifluoromethyl)-3,4-dihydro-2H-pyrano[2,3-b]pyridin-4-yl]-3-[3-(2-hydroxyethyl)-2-oxo-1,2,3,4-tetrahydroquinazolin-7-yl]urea], the “human TRPV1 H^+ (max % remain)” value at human TRPV1 [1] is given as 9%. Also, on human TRPV1 [2], the IC50 amounted to 1500 nM.

With `CC1(C)C[C@@H](NC(=O)Nc2ccc3c(c2)NC(=O)N(CCO)C3)c2ccc(Br)cc2O1` [Example 63, 1-[(4R)-7-bromo-2,2-dimethyl-3,4-dihydro-2H-chromen-4-yl]-3-[3-(2-hydroxyethyl)-2-oxo-1,2,3,4-tetrahydroquinazolin-7-yl]urea], the “human TRPV1 H^+ (max % remain)” value on human TRPV1 [1] is on record as 3%. The IC50 on human TRPV1 [2] is 97 nM.

As for `Cn1c(=O)ccc2c(NC(=O)N[C@@H]3CCOc4cc(C(F)(F)F)ccc43)cccc21` [Example 64, 1-(1-methyl-2-oxo-1,2-dihydroquinolin-5-yl)-3-[(4R)-7-(trifluoromethyl)-3,4-dihydro-2H-chromen-4-yl]urea], the “human TRPV1 H^+ (max % remain)” value on human TRPV1 [1] is on record as 26%. Moreover, at human TRPV1 [2], the IC50 stood at 14 nM.

Take `Cn1c(=O)ccc2c(NC(=O)N[C@@H]3CC4(CCCC4)Oc4ccccc43)cccc21` [Example 65, 1-[(4R)-3,4-dihydrospiro[chromene-2,1′-cyclopentan]-4-yl]-3-(1-methyl-2-oxo-1,2-dihydroquinolin-5-yl)urea]: the “human TRPV1 H^+ (max % remain)” value at human TRPV1 [1] was found to be 37%. For the same compound, the IC50 at human TRPV1 [2] is 28 nM.

Regarding `CCC1(CC)C[C@@H](NC(=O)Nc2cccc3c2ccc(=O)n3C)c2cccc(F)c2O1` [Example 66, 1-[(4R)-2,2-diethyl-8-fluoro-3,4-dihydro-2H-chromen-4-yl]-3-(1-methyl-2-oxo-1,2-dihydroquinolin-5-yl)urea], the “human TRPV1 H^+ (max % remain)” value on human TRPV1 [1] amounted to 42%. In addition, the IC50 on human TRPV1 [2] was found to be 15 nM.

For the compound `CCC1(CC)C[C@@H](NC(=O)Nc2cccc3c2ccc(=O)n3C)c2ccccc2O1` [Example 67, 1-[(4R)-2,2-diethyl-3,4-dihydro-2H-chromen-4-yl]-3-(1-methyl-2-oxo-1,2-dihydroquinolin-5-yl)urea], at human TRPV1 [1], the “human TRPV1 H^+ (max % remain)” value is on record as 41%. Moreover, on human TRPV1 [2], the IC50 turned out to be 17 nM.

As for `Cn1c(=O)ccc2c(NC(=O)N[C@@H]3CCc4cc(C(C)(C)C)ccc43)cccc21` [Example 68, 1-[(1R)-5-tert-butyl-2,3-dihydro-1H-inden-1-yl]-3-(1-methyl-2-oxo-1,2-dihydroquinolin-5-yl)urea], the “human TRPV1 H^+ (max % remain)” value at human TRPV1 [1] was 34%. Besides, on human TRPV1 [2], the IC50 is 20 nM.

With `CCC1(CC)C[C@@H](NC(=O)Nc2cccc3c2ccc(=O)n3C)c2ccc(C(F)(F)F)cc2O1` [Example 69, 1-[(4R)-2,2-diethyl-7-(trifluoromethyl)-3,4-dihydro-2H-chromen-4-yl]-3-(1-methyl-2-oxo-1,2-dihydroquinolin-5-yl)urea], the “human TRPV1 H^+ (max % remain)” value at human TRPV1 [1] worked out at 13%. Further, the IC50 at human TRPV1 [2] was found to be 55 nM.

For the compound `CCC1(CC)C[C@@H](NC(=O)Nc2cccc3c2ccc(=O)n3C)c2ccc(Cl)cc2O1` [Example 70, 1-[(4R)-7-chloro-2,2-diethyl-3,4-dihydro-2H-chromen-4-yl]-3-(1-methyl-2-oxo-1,2-dihydroquinolin-5-yl)urea], at human TRPV1 [1], the “human TRPV1 H^+ (max % remain)” value is 17%. In addition, the IC50 on human TRPV1 [2] is 29 nM.

As to `Cn1c(=O)ccc2c(NC(=O)N[C@@H]3CC(CF)(CF)Oc4ccc(F)cc43)cccc21` [Example 71, 1-[(4R)-6-fluoro-2,2-bis(fluoromethyl)-3,4-dihydro-2H-chromen-4-yl]-3-(1-methyl-2-oxo-1,2-dihydroquinolin-5-yl)urea], the “human TRPV1 H^+ (max % remain)” value on human TRPV1 [1] was 46%. In addition, at human TRPV1 [2], the IC50 is 29 nM.

On to `Cn1c(=O)ccc2c(NC(=O)N[C@@H]3CC(CF)(CF)Oc4c(F)cc(F)cc43)cccc21` [Example 72, 1-[(4R)-6,8-difluoro-2,2-bis(fluoromethyl)-3,4-dihydro-2H-chromen-4-yl]-3-(1-methyl-2-oxo-1,2-dihydroquinolin-5-yl)urea], for which the “human TRPV1 H^+ (max % remain)” value at human TRPV1 [1] is listed as 36%. On human TRPV1 [2], the concentration for half-maximal inhibition (IC50) was 54 nM.

`Cn1c(=O)ccc2c(NC(=O)N[C@@H]3CC4(CCC4)Oc4ccc(F)cc43)cccc21` [Example 73, 1-[(4R)-6-fluoro-3,4-dihydrospiro[chromene-2,1′-cyclobutan]-4-yl]-3-(1-methyl-2-oxo-1,2-dihydroquinolin-5-yl)urea]: on human TRPV1 [1], the “human TRPV1 H^+ (max % remain)” value came out at 32%. The IC50 on human TRPV1 [2] came out at 19 nM.

With `CCC1(CC)C[C@@H](NC(=O)Nc2cccc3c2ccc(=O)n3C)c2cc(F)ccc2O1` [Example 74, 1-[(4R)-2,2-diethyl-6-fluoro-3,4-dihydro-2H-chromen-4-yl]-3-(1-methyl-2-oxo-1,2-dihydroquinolin-5-yl)urea], the “human TRPV1 H^+ (max % remain)” value on human TRPV1 [1] was 28%. Also, on human TRPV1 [2], the IC50 was 19 nM.

As for `CCCC1(CCC)C[C@@H](NC(=O)Nc2cccc3c2ccc(=O)n3C)c2cccc(F)c2O1` [Example 75, 1-[(4R)-8-fluoro-2,2-dipropyl-3,4-dihydro-2H-chromen-4-yl]-3-(1-methyl-2-oxo-1,2-dihydroquinolin-5-yl)urea], the “human TRPV1 H^+ (max % remain)” value on human TRPV1 [1] is given as 50%. In addition, the IC50 on human TRPV1 [2] was found to be 24 nM.

In the case of `CCC1(CC)C[C@@H](NC(=O)Nc2cccc3c2ccc(=O)n3C)c2ccc(OC(F)(F)F)cc2O1` [Example 76, 1-[(4R)-2,2-diethyl-7-(trifluoromethoxy)-3,4-dihydro-2H-chromen-4-yl]-3-(1-methyl-2-oxo-1,2-dihydroquinolin-5-yl)urea], the “human TRPV1 H^+ (max % remain)” value on human TRPV1 [1] turned out to be 17%. For the same compound, the IC50 on human TRPV1 [2] came to 32 nM.

As to `Cn1c(=O)ccc2c(NC(=O)N[C@@H]3CC(C)(C)Oc4ccccc43)cccc21` [Example 77, 1-[(4R)-2,2-dimethyl-3,4-dihydro-2H-chromen-4-yl]-3-(1-methyl-2-oxo-1,2-dihydroquinolin-5-yl)urea], the “human TRPV1 H^+ (max % remain)” value on human TRPV1 [1] amounted to 58%. Moreover, at human TRPV1 [2], the IC50 turned out to be 41 nM.

Regarding `Cn1c(=O)ccc2c(NC(=O)N[C@H]3CCOc4cc(OC(F)(F)F)ccc43)cccc21` [Example 78, 1-(1-methyl-2-oxo-1,2-dihydroquinolin-5-yl)-3-[(4S)-7-(trifluoromethoxy)-3,4-dihydro-2H-chromen-4-yl]urea], the “human TRPV1 H^+ (max % remain)” value at human TRPV1 [1] came to 46%. The IC50 on human TRPV1 [2] is 91 nM.

With `COCC1(COC)C[C@@H](NC(=O)Nc2cccc3c2ccc(=O)n3C)c2cc(F)ccc2O1` [Example 79, 1-[(4R)-6-fluoro-2,2-bis(methoxymethyl)-3,4-dihydro-2H-chromen-4-yl]-3-(1-methyl-2-oxo-1,2-dihydroquinolin-5-yl)urea], the “human TRPV1 H^+ (max % remain)” value on human TRPV1 [1] amounted to 46%. Also, at human TRPV1 [2], the IC50 is 260 nM.

One may read the IC50 as the point on the concentration scale where inhibition reaches its midpoint.
